Literature values as cited in patent publication US9597322B2, “Otamixaban for use in the treatment of non-ST elevation acute coronary syndrome in patients planned to undergo coronary artery bypass grafting” (SANOFI, priority 2012, dated 2017).
Like-named read-outs stand apart in the source and are kept apart here.

Tests used:
free factor Xa = free factor Xa (Homo sapiens, UniProt P00742); conditions: direct, independent of antithrombin III; cited from earlier work
[1] = molecular target: factor Xa assembled in the prothrombinase complex (Factor Xa, Factor Va, calcium and phospholipid) (Homo sapiens, UniProt P00742); conditions: direct, independent of antithrombin III; cited from earlier work
thrombosis [2] = conditions: rodent; cited from earlier work
thrombosis [3] = conditions: canine; cited from earlier work
thrombosis [4] = conditions: porcine; cited from earlier work
[5] = system: prothrombin fragments 1+2; conditions: highest dose regimen; Cohen et al. 2007; cited from earlier work
factor Xa = molecular target: T1, factor Xa (Homo sapiens, UniProt P00742); conditions: patients with stable coronary artery disease on usual comedication, some with mild renal impairment; Hinder et al. 2006; cited from earlier work
T1 construct: host or cells: blood of patients (endogenous)
T1 sequence (P00742 235-488 limits assumed): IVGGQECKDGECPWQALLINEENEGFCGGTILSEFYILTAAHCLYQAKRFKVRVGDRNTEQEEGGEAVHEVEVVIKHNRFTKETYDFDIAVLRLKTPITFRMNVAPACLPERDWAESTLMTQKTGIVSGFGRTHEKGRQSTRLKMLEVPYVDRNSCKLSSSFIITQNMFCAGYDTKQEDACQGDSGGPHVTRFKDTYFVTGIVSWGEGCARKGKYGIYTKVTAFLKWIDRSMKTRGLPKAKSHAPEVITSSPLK
T1 sequence (P00742 41-179 partner limits assumed): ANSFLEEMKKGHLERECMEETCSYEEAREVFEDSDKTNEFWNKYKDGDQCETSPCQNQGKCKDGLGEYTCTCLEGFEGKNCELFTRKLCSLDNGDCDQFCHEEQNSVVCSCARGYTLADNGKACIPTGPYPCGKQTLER

free factor Xa, sequence (P00742 235-488 limits assumed): as the sequence (P00742 235-488 limits assumed) above
free factor Xa, sequence (P00742 41-179 partner limits assumed): as the sequence (P00742 41-179 partner limits assumed) above
factor Xa assembled in the prothrombinase complex (Factor Xa, Factor Va, calcium and phospholipid), sequence (P00742 235-488 limits assumed): as the sequence (P00742 235-488 limits assumed) above
factor Xa assembled in the prothrombinase complex (Factor Xa, Factor Va, calcium and phospholipid), sequence (P00742 41-179 partner limits assumed): as the sequence (P00742 41-179 partner limits assumed) above
factor Xa assembled in the prothrombinase complex (Factor Xa, Factor Va, calcium and phospholipid), sequence (P12259 29-737 partner limits assumed): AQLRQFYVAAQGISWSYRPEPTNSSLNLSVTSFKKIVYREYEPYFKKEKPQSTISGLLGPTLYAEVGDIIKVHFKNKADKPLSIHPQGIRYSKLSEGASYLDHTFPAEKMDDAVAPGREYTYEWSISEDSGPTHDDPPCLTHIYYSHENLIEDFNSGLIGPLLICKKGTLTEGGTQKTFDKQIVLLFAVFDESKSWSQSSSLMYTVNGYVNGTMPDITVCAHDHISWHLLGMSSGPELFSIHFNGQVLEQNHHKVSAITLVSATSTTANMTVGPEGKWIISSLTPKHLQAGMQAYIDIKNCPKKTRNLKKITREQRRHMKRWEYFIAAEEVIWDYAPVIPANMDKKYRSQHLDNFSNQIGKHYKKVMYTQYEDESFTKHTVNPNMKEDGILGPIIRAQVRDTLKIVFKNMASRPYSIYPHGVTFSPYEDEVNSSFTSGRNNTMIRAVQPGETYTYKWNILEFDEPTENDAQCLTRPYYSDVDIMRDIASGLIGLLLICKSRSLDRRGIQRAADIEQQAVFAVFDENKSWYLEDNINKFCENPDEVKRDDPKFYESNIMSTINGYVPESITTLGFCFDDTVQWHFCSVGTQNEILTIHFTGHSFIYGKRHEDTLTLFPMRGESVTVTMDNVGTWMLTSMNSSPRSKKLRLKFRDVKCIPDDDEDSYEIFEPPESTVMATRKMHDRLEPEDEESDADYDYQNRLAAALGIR
factor Xa assembled in the prothrombinase complex (Factor Xa, Factor Va, calcium and phospholipid), sequence (P12259 1574-2224 partner limits assumed): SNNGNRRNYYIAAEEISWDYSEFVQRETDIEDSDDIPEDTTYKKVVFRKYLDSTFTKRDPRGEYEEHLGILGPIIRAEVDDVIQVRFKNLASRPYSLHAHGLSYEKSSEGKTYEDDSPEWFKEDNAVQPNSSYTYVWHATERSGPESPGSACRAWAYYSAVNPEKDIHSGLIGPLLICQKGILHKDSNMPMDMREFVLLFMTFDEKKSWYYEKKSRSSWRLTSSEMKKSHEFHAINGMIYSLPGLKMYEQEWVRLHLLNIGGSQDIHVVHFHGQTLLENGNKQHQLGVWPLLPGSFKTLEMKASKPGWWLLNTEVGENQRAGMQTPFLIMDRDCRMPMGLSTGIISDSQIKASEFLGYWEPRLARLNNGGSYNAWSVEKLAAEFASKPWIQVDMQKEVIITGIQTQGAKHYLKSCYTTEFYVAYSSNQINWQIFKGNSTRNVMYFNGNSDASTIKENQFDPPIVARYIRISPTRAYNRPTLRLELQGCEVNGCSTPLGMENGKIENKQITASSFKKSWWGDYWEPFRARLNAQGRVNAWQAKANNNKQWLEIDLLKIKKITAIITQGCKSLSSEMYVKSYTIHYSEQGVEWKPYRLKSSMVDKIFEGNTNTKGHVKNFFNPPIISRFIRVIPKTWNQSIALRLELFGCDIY

Structure (SMILES): COC(=O)C(Cc1cccc(C(=N)N)c1)[C@@H](C)NC(=O)c1ccc(-c2cc[n+]([O-])cc2)cc1 (mixture of isomers) [Otamixaban, (2R,3R)-2-(3-Carbamimidoyl-benzyl)-3-[4-(1-oxy-pyridin-4-yl)benzoylamino]-butyric acid methyl ester]
- inhibition of free factor Xa (free factor Xa): inhibited
- inhibition of factor Xa assembled in the prothrombinase complex [1]: inhibited
- efficacy in model of thrombosis (thrombosis [2]): highly efficacious
- efficacy in model of thrombosis (thrombosis [3]): highly efficacious
- efficacy in model of thrombosis (thrombosis [4]): highly efficacious
- reduction of prothrombin fragments 1+2 versus unfractionated heparin [5]: significantly more than unfractionated heparin
- factor Xa inhibition in patients (factor Xa): dose-dependent, rapid direct factor Xa inhibition
